Measured values from ChEMBL document CHEMBL5131516, “The Ascension of Targeted Covalent Inhibitors” (J Med Chem, 2022).

Key:
[1] = Inhibition of wild-type EGFR phosphorylation in human NCI-H1819 cells; type: cell-based
[2] = target: T1, Tyrosine-protein kinase Tec (Homo sapiens, UniProt P42680)
T1 sequence (P42680 whole entry): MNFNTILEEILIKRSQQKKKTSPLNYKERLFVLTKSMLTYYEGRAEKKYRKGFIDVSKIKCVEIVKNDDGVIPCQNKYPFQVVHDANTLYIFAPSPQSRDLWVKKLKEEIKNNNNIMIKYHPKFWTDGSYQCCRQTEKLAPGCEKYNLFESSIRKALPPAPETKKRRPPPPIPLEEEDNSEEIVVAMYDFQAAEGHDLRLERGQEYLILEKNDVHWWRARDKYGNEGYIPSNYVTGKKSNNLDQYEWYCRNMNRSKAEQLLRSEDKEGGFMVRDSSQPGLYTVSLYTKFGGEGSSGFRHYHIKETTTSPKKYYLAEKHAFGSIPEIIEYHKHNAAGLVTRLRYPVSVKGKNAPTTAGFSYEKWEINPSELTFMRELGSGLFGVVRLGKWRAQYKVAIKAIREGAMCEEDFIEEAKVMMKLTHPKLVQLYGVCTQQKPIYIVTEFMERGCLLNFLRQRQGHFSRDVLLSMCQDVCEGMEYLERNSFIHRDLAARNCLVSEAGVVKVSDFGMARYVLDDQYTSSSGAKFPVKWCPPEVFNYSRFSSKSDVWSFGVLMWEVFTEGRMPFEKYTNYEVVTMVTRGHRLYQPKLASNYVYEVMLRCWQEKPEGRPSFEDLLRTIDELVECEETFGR
Description: Inhibition of TEC (unknown origin)

## COc1cc2ncnc(Nc3ccc(F)c(Cl)c3)c2cc1NC(=O)/C=C/CN1CCCCC1 [DACOMITINIB ANHYDROUS]
[1]
  EC50: 29 nM

## C=CC(=O)N1CCC([C@@H]2CCNc3c(C(N)=O)c(-c4ccc(Oc5ccccc5)cc4)nn32)CC1 [ZANUBRUTINIB]
[2]
  IC50: 44 nM
